In ChEMBL document CHEMBL5726269, “Phosphonate compounds for treatment of complement mediated disorders” (2017):

Molecular target: Complement factor D (Homo sapiens, UniProt P00746)
Experiment: Human Factor D Assay: Human factor D (purified from human serum, Complement Technology, Inc.) at 80 nM final concentration is incubated with test compound at various concentrations for 5 minutes at room temperature in 50 mM Tris, 1M NaCl, pH 7.5. A synthetic substrate Z-L-Lys-SBzl and DTNB (Ellman's reagent) are added to final concentrations of 100 μM each. The increase in color is recorded at OD405 nm in a microplate in kinetic mode over 30 minutes with 30 second time points in a spectrofluorimeter. IC50 values are calculated by non-linear regression from the percentage of inhibition of complement factor D activity as a function of test compound concentration.

Complement factor D, sequence (P00746 whole entry): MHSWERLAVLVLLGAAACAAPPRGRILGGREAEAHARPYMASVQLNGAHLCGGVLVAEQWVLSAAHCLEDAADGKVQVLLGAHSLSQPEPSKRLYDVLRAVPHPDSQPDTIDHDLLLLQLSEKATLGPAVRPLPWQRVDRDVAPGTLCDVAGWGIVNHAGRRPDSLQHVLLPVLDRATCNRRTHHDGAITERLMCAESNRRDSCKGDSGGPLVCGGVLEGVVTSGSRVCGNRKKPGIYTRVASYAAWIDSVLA

`CC(=O)c1cn(CC(=O)N2C[C@H](F)C[C@H]2C(=O)NCc2cccc(Cl)c2F)c2cc(P(=O)(Oc3ccccc3)Oc3ccccc3)ccc12` was tested, and the IC50 was < 1 µM.
